The NIST ThermoML archive (doi:10.1021/je025655p)
Numbers after ± are expanded uncertainties.

Experiments:
[1] = xn = mol fraction of the nth substance listed; settings: 101.3 kPa, Liquid; for viscosity: Capillary tube (Ostwald / Ubbelohde) method; for speed of sound: Sing-around technique in a fixed-path interferometer; for mass density: Vibrating tube method
[2] = excess molar enthalpy (molar enthalpy of mixing); xn = mol fraction of the nth substance listed; settings: 101.3 kPa, Liquid, Flow calorimetry

OCC(F)(F)F [2,2,2-trifluoroethanol] + C1CCOCC1
viscosity ([1]; 283.15 K, x2 = 0.0508): 2.521 ± 0.015 mPa·s | viscosity ([1]; 283.15 K, x2 = 0.1011): 2.265 ± 0.014 mPa·s | viscosity ([1]; 283.15 K, x2 = 0.2025): 1.834 ± 0.012 mPa·s | viscosity ([1]; 283.15 K, x2 = 0.3024): 1.546 ± 0.01 mPa·s | viscosity ([1]; 283.15 K, x2 = 0.404): 1.348 ± 0.0089 mPa·s | viscosity ([1]; 283.15 K, x2 = 0.5027): 1.22 ± 0.0083 mPa·s | viscosity ([1]; 283.15 K, x2 = 0.6069): 1.123 ± 0.0079 mPa·s | viscosity ([1]; 283.15 K, x2 = 0.7013): 1.064 ± 0.0077 mPa·s | viscosity ([1]; 283.15 K, x2 = 0.8016): 1.026 ± 0.0076 mPa·s | viscosity ([1]; 283.15 K, x2 = 0.9064): 1.01 ± 0.0078 mPa·s | speed of sound ([1]; 283.15 K, x2 = 0.1039): 903.5 ± 1.1 m/s | speed of sound ([1]; 283.15 K, x2 = 0.2071): 942.2 ± 1.2 m/s | speed of sound ([1]; 283.15 K, x2 = 0.3067): 985.6 ± 1.2 m/s | speed of sound ([1]; 283.15 K, x2 = 0.4123): 1034 ± 1.2 m/s | speed of sound ([1]; 283.15 K, x2 = 0.5017): 1076.2 ± 1.3 m/s | speed of sound ([1]; 283.15 K, x2 = 0.6011): 1124.9 ± 1.3 m/s | speed of sound ([1]; 283.15 K, x2 = 0.7183): 1184.3 ± 1.4 m/s | speed of sound ([1]; 283.15 K, x2 = 0.8206): 1237.7 ± 1.4 m/s | speed of sound ([1]; 283.15 K, x2 = 0.8955): 1278.1 ± 1.5 m/s | mass density ([1]; 283.15 K, x2 = 0.1039): 1328.18 ± 0.22 kg/m3 | mass density ([1]; 283.15 K, x2 = 0.2071): 1259.32 ± 0.25 kg/m3 | mass density ([1]; 283.15 K, x2 = 0.3073): 1199.39 ± 0.28 kg/m3 | mass density ([1]; 283.15 K, x2 = 0.4127): 1142.29 ± 0.31 kg/m3 | mass density ([1]; 283.15 K, x2 = 0.5017): 1097.77 ± 0.34 kg/m3 | mass density ([1]; 283.15 K, x2 = 0.6011): 1051.7 ± 0.36 kg/m3 | mass density ([1]; 283.15 K, x2 = 0.7183): 1001.3 ± 0.39 kg/m3 | mass density ([1]; 283.15 K, x2 = 0.8206): 960.36 ± 0.42 kg/m3 | mass density ([1]; 283.15 K, x2 = 0.8955): 931.9 ± 0.44 kg/m3 | viscosity ([1]; 298.15 K, x2 = 0.0508): 1.68 ± 0.011 mPa·s | viscosity ([1]; 298.15 K, x2 = 0.1011): 1.557 ± 0.0097 mPa·s | viscosity ([1]; 298.15 K, x2 = 0.2025): 1.33 ± 0.0085 mPa·s | viscosity ([1]; 298.15 K, x2 = 0.3024): 1.159 ± 0.0076 mPa·s | viscosity ([1]; 298.15 K, x2 = 0.404): 1.034 ± 0.007 mPa·s | viscosity ([1]; 298.15 K, x2 = 0.5027): 0.9509 ± 0.0066 mPa·s | viscosity ([1]; 298.15 K, x2 = 0.6069): 0.8855 ± 0.0064 mPa·s | viscosity ([1]; 298.15 K, x2 = 0.7013): 0.845 ± 0.0062 mPa·s | viscosity ([1]; 298.15 K, x2 = 0.8016): 0.8183 ± 0.0062 mPa·s | viscosity ([1]; 298.15 K, x2 = 0.9064): 0.8047 ± 0.0063 mPa·s | speed of sound ([1]; 298.15 K, x2 = 0.1023): 850.5 ± 1.1 m/s | speed of sound ([1]; 298.15 K, x2 = 0.2029): 886.4 ± 1.2 m/s | speed of sound ([1]; 298.15 K, x2 = 0.3203): 933.6 ± 1.2 m/s | speed of sound ([1]; 298.15 K, x2 = 0.412): 972.6 ± 1.2 m/s | speed of sound ([1]; 298.15 K, x2 = 0.5208): 1021 ± 1.3 m/s | speed of sound ([1]; 298.15 K, x2 = 0.6171): 1065.4 ± 1.3 m/s | speed of sound ([1]; 298.15 K, x2 = 0.7342): 1121 ± 1.4 m/s | speed of sound ([1]; 298.15 K, x2 = 0.7996): 1152.3 ± 1.4 m/s | speed of sound ([1]; 298.15 K, x2 = 0.8967): 1201.6 ± 1.5 m/s | mass density ([1]; 298.15 K, x2 = 0.1023): 1305.58 ± 0.22 kg/m3 | mass density ([1]; 298.15 K, x2 = 0.2029): 1239.41 ± 0.24 kg/m3 | mass density ([1]; 298.15 K, x2 = 0.3203): 1170.85 ± 0.28 kg/m3 | mass density ([1]; 298.15 K, x2 = 0.412): 1122.5 ± 0.3 kg/m3 | mass density ([1]; 298.15 K, x2 = 0.5192): 1070.38 ± 0.34 kg/m3 | mass density ([1]; 298.15 K, x2 = 0.6171): 1026.55 ± 0.36 kg/m3 | mass density ([1]; 298.15 K, x2 = 0.7342): 977.81 ± 0.39 kg/m3 | mass density ([1]; 298.15 K, x2 = 0.793): 954.59 ± 0.41 kg/m3 | mass density ([1]; 298.15 K, x2 = 0.8967): 915.73 ± 0.43 kg/m3 | viscosity ([1]; 313.15 K, x2 = 0.0508): 1.171 ± 0.0073 mPa·s | viscosity ([1]; 313.15 K, x2 = 0.1011): 1.112 ± 0.007 mPa·s | viscosity ([1]; 313.15 K, x2 = 0.2025): 0.9911 ± 0.0065 mPa·s | viscosity ([1]; 313.15 K, x2 = 0.3024): 0.891 ± 0.006 mPa·s | viscosity ([1]; 313.15 K, x2 = 0.404): 0.8127 ± 0.0056 mPa·s | viscosity ([1]; 313.15 K, x2 = 0.5027): 0.757 ± 0.0054 mPa·s | viscosity ([1]; 313.15 K, x2 = 0.6069): 0.7128 ± 0.0052 mPa·s | viscosity ([1]; 313.15 K, x2 = 0.7013): 0.6832 ± 0.0052 mPa·s | viscosity ([1]; 313.15 K, x2 = 0.8016): 0.6642 ± 0.0052 mPa·s | viscosity ([1]; 313.15 K, x2 = 0.9064): 0.6543 ± 0.0053 mPa·s | speed of sound ([1]; 313.15 K, x2 = 0.0995): 813.9 ± 1.1 m/s | speed of sound ([1]; 313.15 K, x2 = 0.2): 845.8 ± 1.2 m/s | speed of sound ([1]; 313.15 K, x2 = 0.3049): 885 ± 1.2 m/s | speed of sound ([1]; 313.15 K, x2 = 0.4111): 927.4 ± 1.2 m/s | speed of sound ([1]; 313.15 K, x2 = 0.504): 967.4 ± 1.3 m/s | speed of sound ([1]; 313.15 K, x2 = 0.6032): 1010.4 ± 1.3 m/s | speed of sound ([1]; 313.15 K, x2 = 0.733): 1070.3 ± 1.4 m/s | speed of sound ([1]; 313.15 K, x2 = 0.8321): 1116.2 ± 1.4 m/s | speed of sound ([1]; 313.15 K, x2 = 0.8988): 1149.4 ± 1.5 m/s | mass density ([1]; 313.15 K, x2 = 0.1028): 1280.8 ± 0.21 kg/m3 | mass density ([1]; 313.15 K, x2 = 0.2): 1217.96 ± 0.24 kg/m3 | mass density ([1]; 313.15 K, x2 = 0.3049): 1157.77 ± 0.27 kg/m3 | mass density ([1]; 313.15 K, x2 = 0.4108): 1102.63 ± 0.3 kg/m3 | mass density ([1]; 313.15 K, x2 = 0.504): 1058.19 ± 0.32 kg/m3 | mass density ([1]; 313.15 K, x2 = 0.5961): 1017.26 ± 0.35 kg/m3 | mass density ([1]; 313.15 K, x2 = 0.6986): 974.97 ± 0.38 kg/m3 | mass density ([1]; 313.15 K, x2 = 0.8321): 923.77 ± 0.41 kg/m3 | mass density ([1]; 313.15 K, x2 = 0.8986): 899.6 ± 0.42 kg/m3 | excess molar enthalpy ([2]; 283.15 K, x2 = 0.065): -0.102 ± 0.00191 kcal/mol | excess molar enthalpy ([2]; 283.15 K, x2 = 0.127): -0.178 ± 0.00239 kcal/mol | excess molar enthalpy ([2]; 283.15 K, x2 = 0.248): -0.283 ± 0.00359 kcal/mol | excess molar enthalpy ([2]; 283.15 K, x2 = 0.36): -0.342 ± 0.0043 kcal/mol | excess molar enthalpy ([2]; 283.15 K, x2 = 0.466): -0.362 ± 0.00454 kcal/mol | excess molar enthalpy ([2]; 283.15 K, x2 = 0.57): -0.35 ± 0.0043 kcal/mol | excess molar enthalpy ([2]; 283.15 K, x2 = 0.664): -0.303 ± 0.00382 kcal/mol | excess molar enthalpy ([2]; 283.15 K, x2 = 0.755): -0.243 ± 0.00311 kcal/mol | excess molar enthalpy ([2]; 283.15 K, x2 = 0.839): -0.168 ± 0.00239 kcal/mol | excess molar enthalpy ([2]; 283.15 K, x2 = 0.921): -0.0829 ± 0.00143 kcal/mol | excess molar enthalpy ([2]; 283.15 K, x2 = 0.962): -0.037 ± 0.0012 kcal/mol | excess molar enthalpy ([2]; 298.15 K, x2 = 0.065): -0.113 ± 0.00215 kcal/mol | excess molar enthalpy ([2]; 298.15 K, x2 = 0.127): -0.204 ± 0.00287 kcal/mol | excess molar enthalpy ([2]; 298.15 K, x2 = 0.248): -0.322 ± 0.00406 kcal/mol | excess molar enthalpy ([2]; 298.15 K, x2 = 0.36): -0.384 ± 0.00478 kcal/mol | excess molar enthalpy ([2]; 298.15 K, x2 = 0.466): -0.404 ± 0.00502 kcal/mol | excess molar enthalpy ([2]; 298.15 K, x2 = 0.57): -0.387 ± 0.00478 kcal/mol | excess molar enthalpy ([2]; 298.15 K, x2 = 0.664): -0.339 ± 0.0043 kcal/mol | excess molar enthalpy ([2]; 298.15 K, x2 = 0.755): -0.268 ± 0.00359 kcal/mol | excess molar enthalpy ([2]; 298.15 K, x2 = 0.839): -0.184 ± 0.00263 kcal/mol | excess molar enthalpy ([2]; 298.15 K, x2 = 0.921): -0.0908 ± 0.00167 kcal/mol | excess molar enthalpy ([2]; 298.15 K, x2 = 0.962): -0.0428 ± 0.00143 kcal/mol | excess molar enthalpy ([2]; 313.15 K, x2 = 0.065): -0.114 ± 0.00215 kcal/mol | excess molar enthalpy ([2]; 313.15 K, x2 = 0.127): -0.215 ± 0.00311 kcal/mol | excess molar enthalpy ([2]; 313.15 K, x2 = 0.248): -0.348 ± 0.00454 kcal/mol | excess molar enthalpy ([2]; 313.15 K, x2 = 0.36): -0.421 ± 0.00526 kcal/mol | excess molar enthalpy ([2]; 313.15 K, x2 = 0.466): -0.444 ± 0.0055 kcal/mol | excess molar enthalpy ([2]; 313.15 K, x2 = 0.57): -0.427 ± 0.00526 kcal/mol | excess molar enthalpy ([2]; 313.15 K, x2 = 0.664): -0.374 ± 0.00478 kcal/mol | excess molar enthalpy ([2]; 313.15 K, x2 = 0.755): -0.297 ± 0.00382 kcal/mol | excess molar enthalpy ([2]; 313.15 K, x2 = 0.839): -0.203 ± 0.00287 kcal/mol | excess molar enthalpy ([2]; 313.15 K, x2 = 0.921): -0.0997 ± 0.00191 kcal/mol | excess molar enthalpy ([2]; 313.15 K, x2 = 0.962): -0.0466 ± 0.00143 kcal/mol
